Experimental data: US8952024B2, “Herbicidal pyrimidone derivatives” (E I du Pont de Nemours and Company, priority 2009, dated 2015)

Key:
Format in all cases: in vivo
[1] = test system: barnyardgrass (Echinochloa crus-galli); test: Test A pre-/postemergence plant response
In short: (§1)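 Greenhouse pots of loam/sand received directed preemergence soil sprays or postemergence sprays (plants 2–10 cm, 1–2 leaf stage), compounds formulated in non-phytotoxic solvent with surfactant. Injury was rated visually versus untreated controls after about ten days on a 0 (no effect) to 100 (complete control) scale.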

[2] = test system: corn (Zea mays); test: Test A pre-/postemergence plant response
In short: as §1

[3] = test system: giant foxtail (Setaria faberii); test: Test A pre-/postemergence plant response
In short: as §1

[4] = test system: large crabgrass (Digitaria sanguinalis); test: Test A pre-/postemergence plant response
In short: as §1

[5] = test system: morningglory (Ipomoea spp.); test: Test A pre-/postemergence plant response
In short: as §1

[6] = test system: pigweed (Amaranthus retroflexus); test: Test A pre-/postemergence plant response
In short: as §1

[7] = test system: velvetleaf (Abutilon theophrasti); test: Test A pre-/postemergence plant response
In short: as §1

[8] = test system: wheat (Triticum aestivum); test: Test A pre-/postemergence plant response
In short: as §1

[9] = test system: canarygrass (Phalaris minor); test: Test B postemergence plant response; conditions: Postemergence
Source text: (§2) At the same time, plants selected from these crop and weed species and also winter barley (Hordeum vulgare), canarygrass (Phalaris minor), chickweed (Stellaria media) and windgrass (Apera spica-venti) were planted in pots containing Redi-Earth® planting medium (Scotts Company, 14111 Scottslawn Road, Marysville, Ohio 43041) comprising spaghnum peat moss, vermiculite, wetting agent and starter nutrients and treated with postemergence applications of some of the test chemicals formulated in the same manner. Plants ranged in height from 2 to 18 cm (1- to 4-leaf stage) for postemergence treatments.
(§3) Treated plants and controls were maintained in a greenhouse for 13 to 15 days, after which time all treated plants were visually evaluated and compared to controls. Plant response ratings, summarized in Table B, are based on a scale of 0 to 100 where 0 is no effect and 100 is complete control. A dash (-) response means no test result.

[10] = test system: chickweed (Stellaria media); test: Test B postemergence plant response; conditions: Postemergence
Source text: as §2, §3

[11] = test system: windgrass (Apera spica-venti); test: Test B postemergence plant response; conditions: Postemergence
Source text: as §2, §3

[12] = test system: ducksalad (Heteranthera limosa); test: Test B flooded paddy test
In short: (§4)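 2-leaf seedlings; pots flooded 3 cm over soil at treatment; cpd dosed into floodwater, depth kept constant. Greenhouse 13–15 d. Visual rating vs untreated controls, 0 = no effect, 100 = complete control.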

[13] = test system: rice (Oryza sativa); test: Test B flooded paddy test
In short: as §4

[14] = Postemergence, 125 g ai/ha, 0 to 100 scale where 0 is no effect and 100 is complete control
[15] = Postemergence, 500 g ai/ha, visual injury, 0 to 100 scale (0 no effect, 100 complete control), approx. ten days
[16] = Preemergence, 125 g ai/ha, 0 to 100 scale, 0 = no effect, 100 = complete control
[17] = Preemergence, 500 g ai/ha, 0 to 100 scale, 0 = no effect, 100 = complete control
[18] = 31 g ai/ha, 0 to 100 scale (0 no effect, 100 complete control)
[19] = 62 g ai/ha, scale 0 to 100 (0 no effect, 100 complete control)
[20] = 125 g ai/ha, scale 0 to 100 (0 no effect, 100 complete control)
[21] = Postemergence, 125 g ai/ha, visual injury, 0 to 100 scale (0 no effect, 100 complete control), approx. ten days
[22] = Postemergence, 500 g ai/ha, 0 to 100 scale, 0 = no effect, 100 = complete control, approx. ten days
[23] = Preemergence, 500 g ai/ha, visual injury, 0 to 100 scale (0 no effect, 100 complete control), approx. ten days
[24] = 250 g ai/ha, flooded paddy test, visual rating on 0 to 100 scale (0 no effect, 100 complete control) after 13 to 15 days
[25] = Flood (flooded paddy test), 62 g ai/ha, scale 0 to 100, 0 is no effect, 100 is complete control, 13 to 15 days

SMILES: Cc1ccccc1-n1c(-c2cc(F)cc(F)c2)ncc(C(=O)C2=C(O)CCCC2=O)c1=O [Compound 159]
- Plant response rating, Barnyardgrass [1, 14]: 90
- Barnyardgrass plant response rating [1, 15]: 100
- Plant response rating, Barnyardgrass [1, 16]: 30
- Plant response rating, Barnyardgrass [1, 17]: 90
- Plant response rating, Corn [2, 14]: 0
- Corn plant response rating [2, 15]: 70
- Plant response rating, Corn [2, 16]: 0
- Plant response rating, Corn [2, 17]: 40
- Plant response rating, Foxtail, Giant [3, 14]: 90
- Foxtail, Giant plant response rating [3, 15]: 100
- Plant response rating, Foxtail, Giant [3, 16]: 60
- Plant response rating, Foxtail, Giant [3, 17]: 90
- Plant response rating, Crabgrass, Large [4, 14]: 90
- Crabgrass, Large plant response rating [4, 15]: 90
- Plant response rating, Crabgrass, Large [4, 16]: 80
- Plant response rating, Crabgrass, Large [4, 17]: 100
- Plant response rating, Morningglory [5, 14]: 100
- Morningglory plant response rating [5, 15]: 100
- Plant response rating, Morningglory [5, 16]: 0
- Plant response rating, Morningglory [5, 17]: 50
- Plant response rating, Pigweed [6, 14]: 100
- Pigweed plant response rating [6, 15]: 100
- Plant response rating, Pigweed [6, 16]: 100
- Plant response rating, Pigweed [6, 17]: 100
- Plant response rating, Velvetleaf [7, 14]: 100
- Velvetleaf plant response rating [7, 15]: 100
- Plant response rating, Velvetleaf [7, 16]: 70
- Plant response rating, Velvetleaf [7, 17]: 100
- Plant response rating, Wheat [8, 14]: 10
- Wheat plant response rating [8, 15]: 60
- Plant response rating, Wheat [8, 16]: 0
- Plant response rating, Wheat [8, 17]: 20
- Plant response rating, Canarygrass ([9]; 8 g ai/ha, 0 to 100 scale): 25
- Plant response rating, Canarygrass ([9]; 16 g ai/ha, 0 to 100 scale): 40
- Plant response rating, Canarygrass [9, 18]: 80
- Plant response rating, Chickweed ([10]; 8 g ai/ha, 0 to 100 scale): 80
- Plant response rating, Chickweed ([10]; 16 g ai/ha, 0 to 100 scale): 100
- Plant response rating, Chickweed [10, 18]: 100
- Plant response rating, Windgrass ([11]; 8 g ai/ha, 0 to 100 scale): 10
- Plant response rating, Windgrass ([11]; 16 g ai/ha, 0 to 100 scale): 40
- Plant response rating, Windgrass [11, 18]: 45

SMILES: CC1(C)CC(=O)C(C(=O)c2cnc(-c3ccccc3)n(-c3ccccc3)c2=O)=C(O)C1 [Compound 225]
- Plant response rating, Barnyardgrass [1, 14]: 90
- Barnyardgrass plant response rating [1, 15]: 100
- Plant response rating, Barnyardgrass [1, 16]: 20
- Plant response rating, Barnyardgrass [1, 17]: 90
- Plant response rating, Corn [2, 14]: 10
- Corn plant response rating [2, 15]: 50
- Plant response rating, Corn [2, 16]: 0
- Plant response rating, Corn [2, 17]: 20
- Plant response rating, Foxtail, Giant [3, 14]: 70
- Foxtail, Giant plant response rating [3, 15]: 90
- Plant response rating, Foxtail, Giant [3, 16]: 40
- Plant response rating, Foxtail, Giant [3, 17]: 80
- Plant response rating, Crabgrass, Large [4, 14]: 90
- Crabgrass, Large plant response rating [4, 15]: 100
- Plant response rating, Crabgrass, Large [4, 16]: 60
- Plant response rating, Crabgrass, Large [4, 17]: 100
- Plant response rating, Morningglory [5, 14]: 100
- Morningglory plant response rating [5, 15]: 100
- Plant response rating, Morningglory [5, 16]: 30
- Plant response rating, Morningglory [5, 17]: 80
- Plant response rating, Pigweed [6, 14]: 100
- Pigweed plant response rating [6, 15]: 100
- Plant response rating, Pigweed [6, 16]: 90
- Plant response rating, Pigweed [6, 17]: 100
- Plant response rating, Velvetleaf [7, 14]: 100
- Velvetleaf plant response rating [7, 15]: 100
- Plant response rating, Velvetleaf [7, 16]: 80
- Plant response rating, Velvetleaf [7, 17]: 100
- Plant response rating, Wheat [8, 14]: 0
- Wheat plant response rating [8, 15]: 40
- Plant response rating, Wheat [8, 16]: 0
- Plant response rating, Wheat [8, 17]: 30
- Plant response rating, Canarygrass ([9]; 16 g ai/ha, 0 to 100 scale): 55
- Plant response rating, Canarygrass [9, 18]: 60
- Plant response rating, Canarygrass [9, 19]: 85
- Plant response rating, Canarygrass [9, 20]: 85
- Plant response rating, Chickweed ([10]; 16 g ai/ha, 0 to 100 scale): 15
- Plant response rating, Chickweed [10, 18]: 25
- Plant response rating, Chickweed [10, 19]: 40
- Plant response rating, Chickweed [10, 20]: 95
- Plant response rating, Windgrass ([11]; 16 g ai/ha, 0 to 100 scale): 5
- Plant response rating, Windgrass [11, 18]: 50
- Plant response rating, Windgrass [11, 19]: 55

SMILES: Cc1ccc(-n2c(-c3ccccc3)ncc(C(=O)C3=C(O)CCCC3=O)c2=O)c(C)c1 [Compound 28]
- Barnyardgrass plant response rating [1, 21]: 30
- Plant response rating, Barnyardgrass [1, 22]: 90
- Plant response rating, Barnyardgrass [1, 16]: 10
- Plant response rating, Barnyardgrass [1, 23]: 70
- Corn plant response rating [2, 21]: 0
- Plant response rating, Corn [2, 22]: 0
- Plant response rating, Corn [2, 16]: 0
- Plant response rating, Corn [2, 23]: 0
- Foxtail, Giant plant response rating [3, 21]: 30
- Plant response rating, Foxtail, Giant [3, 22]: 80
- Plant response rating, Foxtail, Giant [3, 16]: 0
- Plant response rating, Foxtail, Giant [3, 23]: 30
- Crabgrass, Large plant response rating [4, 21]: 40
- Plant response rating, Crabgrass, Large [4, 22]: 80
- Plant response rating, Crabgrass, Large [4, 16]: 20
- Plant response rating, Crabgrass, Large [4, 23]: 60
- Morningglory plant response rating [5, 21]: 0
- Plant response rating, Morningglory [5, 22]: 10
- Plant response rating, Morningglory [5, 16]: 20
- Plant response rating, Morningglory [5, 23]: 80
- Pigweed plant response rating [6, 21]: 100
- Plant response rating, Pigweed [6, 22]: 100
- Plant response rating, Pigweed [6, 16]: 80
- Plant response rating, Pigweed [6, 23]: 100
- Velvetleaf plant response rating [7, 21]: 100
- Plant response rating, Velvetleaf [7, 22]: 100
- Plant response rating, Velvetleaf [7, 16]: 20
- Plant response rating, Velvetleaf [7, 23]: 80
- Wheat plant response rating [8, 21]: 0
- Plant response rating, Wheat [8, 22]: 0
- Plant response rating, Wheat [8, 16]: 0
- Plant response rating, Wheat [8, 23]: 0
- Plant response rating, Flood, Ducksalad [12, 24]: 85
- Plant response rating, Ducksalad [12, 25]: 70
- Plant response rating, Flood, Rice [13, 24]: 0
- Plant response rating, Rice [13, 25]: 0
